# Measurements reported in patent publication US6534534B1, “Pharmaceutical composition active in reducing production of MCP-1 protein” (Aziende Chimiche Riunite Angelini Francesco A.C.R.A.F. …, priority 1997, dated 2003).
# Where two headings read alike, the source gives them in different places.
# Experiments:
# IL-8 = conditions: for IL-8: PBMC, LPS 100 ng/ml, 24 hours, supernatant
# Method: (§1) The capability of bindarit to reduce production of MCP-1 by leucocytes (PBMC) stimulated by LPS was evaluated. White blood cells were isolated by centrifugation on a Ficoll gradient and then stimulated with LPS (100 ng/ml) for 24 hours in the presence or absence of scalar concentrations of bindarit. The supernatant fluid was collected at the end and levels of MCP-1 were measured by means of a specific immunoenzymatic test.
# MCP-1 = conditions: for MCP-1: PBMC, LPS 100 ng/ml, 24 hours, supernatant
# Method: as §1
# mouse air pouch = conditions: for Exudate / Leucocytes: bindarit 0.5% in diet for 18 days
# Method: The action of bindarit was studied in an experimental model in the mouse, the said model being characterized by production of MCP-1, cell infiltration and formation of exudate. Mice were fed ad libitum with a standard diet for rodents or with the same diet with addition of bindarit (0.5%) for 18 days. On the twelfth day, under ether anaesthesia, sterile air (5 ml) was injected under the dorsal skin of the mice to form a sac. On the fifteenth day, again under ether anaesthesia, further sterile air (5 ml) was injected into the pre-formed sac. On the eighteenth day, a sterile physiological solution (1 ml) was injected into the sac thus obtained, or an irritant (1 ml). The said irritant was carrageen (1%) or IL-1 (40 ng). After 5 hours for IL-1, or 24 hours for carrageen, the mice were sacrificed by asphyxia with CO2. The exudate which had developed was collected and used for the leucocyte count and for measurement of the mediators produced.
# [1] = IL-1, share of cells in exudate, bindarit 0.5% in diet
smiles,measurement,setting,value
CC(C)(OCc1nn(Cc2ccccc2)c2ccccc12)C(=O)O [Bindarit],IL-8,IL-8; bindarit 25 μg/ml,30 ± 5.20 ng/mL
same,IL-8,IL-8; bindarit 50 μg/ml,37 ± 5.36 ng/mL
same,IL-8,IL-8; bindarit 100 μg/ml,27 ± 5.8 ng/mL
same,levels of IL-8 produced (in words),IL-8; summary of Table 1,without substantially influencing
same,MCP-1,MCP-1; bindarit 25 μg/ml,1.5 ± 0.38 ng/mL
same,MCP-1,MCP-1; bindarit 50 μg/ml,1.6 ± 0.18 ng/mL
same,MCP-1,MCP-1; bindarit 100 μg/ml,0.8 ± 0.04 ng/mL
same,production of MCP-1 induced by LPS (in words),MCP-1; summary of Table 1,significantly reduces
same,Exudate,"mouse air pouch; IL-1 (40 ng), 5 hours",1.00 ± 0.01 mL
same,Leucocytes,"mouse air pouch; IL-1 (40 ng), 5 hours",7.5 ± 2.21
same,Monocytes,mouse air pouch; [1],6%
same,Polymorphonucleates,mouse air pouch; [1],94%
same,Exudate,"mouse air pouch; carrageen (1%), 24 hours",0.90 ± 0.08 mL
same,Leucocytes,"mouse air pouch; carrageen (1%), 24 hours",4.5 ± 0.64
same,number of infiltrated cells (leucocytes) (in words),mouse air pouch; summary of Table 2,significant reduction
same,volume of exudate collected (in words),mouse air pouch; summary of Table 2,without presenting a reduction
same,percentage of monocytes attracted in the sac (in words),mouse air pouch; summary of Table 3,reduction
